Experimental data from PubChem BioAssay (NCI).
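All cell lines were grown in 96-well plates and treated with compound for 48 hours. GI50 marks 50% less growth. TGI is the concentration that stops growth completely.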

Experiments:
Assay in all cases: NCI tumour cell line growth inhibition, 48 h
[1] = system: MALME-3M melanoma
[2] = system: RXF 393 renal
[3] = system: IGROV1 ovarian
[4] = system: SK-MEL-5 melanoma
[5] = system: UACC-257 melanoma
[6] = system: TK-10 renal
[7] = system: BT-549 breast
[8] = system: HCC-2998 colon
[9] = system: A498 renal
[10] = system: HS 578T breast
[11] = system: HL-60(TB) leukemia
[12] = system: K-562 leukemia
[13] = system: A549 NSCLC
[14] = system: NCI/ADR-RES ovarian
[15] = system: HCT-116 colon
[16] = system: SNB-19 CNS
[17] = system: SN12C renal
[18] = system: SF-268 CNS
[19] = system: SF-295 CNS
[20] = system: OVCAR-5 ovarian
[21] = system: MDA-MB-231 breast
[22] = system: OVCAR-4 ovarian
[23] = system: SW-620 colon
[24] = system: CCRF-CEM leukemia
[25] = system: RPMI-8226 leukemia
[26] = system: CAKI-1 renal
[27] = system: UO-31 renal
[28] = system: MDA-MB-435
[29] = system: NCI-H23 lung
[30] = system: HOP-92 NSCLC
[31] = system: M14 melanoma
[32] = system: NCI-H226 lung
[33] = system: NCI-H522 lung
[34] = system: HT29 colon
[35] = system: UACC-62 melanoma
[36] = system: MCF7 breast
[37] = system: PC-3 prostate
[38] = system: SK-MEL-28 melanoma
[39] = system: HOP-62 NSCLC
[40] = system: OVCAR-8 ovarian
[41] = system: U251 CNS
[42] = system: LOX IMVI melanoma
[43] = system: SK-OV-3 ovarian
[44] = system: SK-MEL-2 melanoma
[45] = system: DU-145 prostate
[46] = system: KM12 colon
[47] = system: SF-539 CNS
[48] = system: HCT-15 colon
[49] = system: NCI-H460 lung
[50] = system: EKVX NSCLC
[51] = system: COLO 205 colon
[52] = system: 786-0 renal
[53] = system: ACHN renal
[54] = system: SR leukemia
[55] = system: OVCAR-3 ovarian
[56] = system: SNB-75 CNS
[57] = system: T-47D breast
[58] = system: MOLT-4 leukemia

CSc1ccc(-c2cn3ccsc3n2)cc1
GI50 [1]: 22.1 µM
TGI [1]: > 72.6 µM
GI50 [2]: 5.19 µM
TGI [2]: > 92 µM
GI50 [3]: 5.73 µM
TGI [3]: > 75.5 µM
GI50 [4]: 14.3 µM
TGI [4]: 98.1 µM
GI50 [5]: 28.7 µM
TGI [5]: > 100 µM
GI50 [6]: 18 µM
TGI [6]: > 84.7 µM
GI50 [7]: > 60.5 µM
TGI [7]: > 100 µM
GI50 [8]: 20.9 µM
TGI [8]: > 100 µM
GI50 [9]: 55.6 µM
TGI [9]: > 100 µM
GI50 [10]: 9.5 µM
TGI [10]: > 65.7 µM
GI50 [11]: 2.42 µM
TGI [11]: > 50 µM
GI50 [12]: 4.85 µM
TGI [12]: > 100 µM
GI50 [13]: 12.9 µM
TGI [13]: > 100 µM
GI50 [14]: 26.4 µM
TGI [14]: > 100 µM
GI50 [15]: 3.6 µM
TGI [15]: > 100 µM
GI50 [16]: 43.5 µM
TGI [16]: > 100 µM
GI50 [17]: 32.2 µM
TGI [17]: > 100 µM
GI50 [18]: 7.54 µM
TGI [18]: > 100 µM
GI50 [19]: 19 µM
TGI [19]: > 86 µM
GI50 [20]: 38.9 µM
TGI [20]: > 100 µM
GI50 [21]: 31.8 µM
TGI [21]: > 100 µM
GI50 [22]: 9.15 µM
TGI [22]: > 100 µM
GI50 [23]: 14.6 µM
TGI [23]: > 100 µM
GI50 [24]: 3.97 µM
TGI [24]: > 47.1 µM
GI50 [25]: 9.2 µM
TGI [25]: > 100 µM
GI50 [26]: 24.9 µM
TGI [26]: > 100 µM
GI50 [27]: 7.95 µM
TGI [27]: > 100 µM
GI50 [28]: 12.6 µM
TGI [28]: > 100 µM
GI50 [29]: 19.3 µM
TGI [29]: > 100 µM
GI50 [30]: 6.81 µM
TGI [30]: > 78.9 µM
GI50 [31]: 18.1 µM
TGI [31]: > 100 µM
GI50 [32]: 24.8 µM
TGI [32]: 98.1 µM
GI50 [33]: 11.1 µM
TGI [33]: > 89.5 µM
GI50 [34]: 33.3 µM
TGI [34]: > 100 µM
GI50 [35]: 25.7 µM
TGI [35]: > 100 µM
GI50 [36]: 1.33 µM
TGI [36]: > 100 µM
GI50 [37]: 18.9 µM
TGI [37]: > 100 µM
GI50 [38]: 27 µM
TGI [38]: > 100 µM
GI50 [39]: 34.6 µM
TGI [39]: > 100 µM
GI50 [40]: 15.8 µM
TGI [40]: > 100 µM
GI50 [41]: 7.65 µM
TGI [41]: > 100 µM
GI50 [42]: 8.6 µM
TGI [42]: > 100 µM
GI50 [43]: 59.7 µM
TGI [43]: > 100 µM
GI50 [44]: 4 µM
TGI [44]: > 92.9 µM
GI50 [45]: 9.07 µM
TGI [45]: > 100 µM
GI50 [46]: 24.4 µM
TGI [46]: > 100 µM
GI50 [47]: 16.9 µM
TGI [47]: > 75.3 µM
GI50 [48]: 9.76 µM
TGI [48]: > 100 µM
GI50 [49]: 3.71 µM
TGI [49]: > 100 µM
GI50 [50]: 36.2 µM
TGI [50]: > 100 µM
GI50 [51]: 14.4 µM
TGI [51]: > 100 µM
GI50 [52]: 32.3 µM
TGI [52]: > 100 µM
GI50 [53]: 5.84 µM
TGI [53]: > 100 µM
GI50 [54]: 1.25 µM
TGI [54]: > 60.8 µM
GI50 [55]: > 28.6 µM
TGI [55]: > 100 µM
GI50 [56]: 7.76 µM
TGI [56]: 74 µM
GI50 [57]: 8.53 µM
TGI [57]: > 100 µM
GI50 [58]: 5.48 µM
TGI [58]: > 100 µM
